Data published in ChEMBL document CHEMBL2440009, “Discovery of GSK2656157: An Optimized PERK Inhibitor Selected for Preclinical Development” (ACS Med Chem Lett, 2013).

How the values were obtained:
[1] = biological target: T1, Eukaryotic translation initiation factor 2-alpha kinase 3 (Homo sapiens, UniProt Q9NZJ5); assay: Inhibition of GST-tagged PERK cytoplasmic domain (536 to 1116) (unknown origin) assessed as biotinylated His6-tagged EIF2alpha phosphorylation preincubated for 30 mins followed by ATP and eIF2alpha addition measured after 1 hr by HTRF assay
T1 sequence (Q9NZJ5 whole entry): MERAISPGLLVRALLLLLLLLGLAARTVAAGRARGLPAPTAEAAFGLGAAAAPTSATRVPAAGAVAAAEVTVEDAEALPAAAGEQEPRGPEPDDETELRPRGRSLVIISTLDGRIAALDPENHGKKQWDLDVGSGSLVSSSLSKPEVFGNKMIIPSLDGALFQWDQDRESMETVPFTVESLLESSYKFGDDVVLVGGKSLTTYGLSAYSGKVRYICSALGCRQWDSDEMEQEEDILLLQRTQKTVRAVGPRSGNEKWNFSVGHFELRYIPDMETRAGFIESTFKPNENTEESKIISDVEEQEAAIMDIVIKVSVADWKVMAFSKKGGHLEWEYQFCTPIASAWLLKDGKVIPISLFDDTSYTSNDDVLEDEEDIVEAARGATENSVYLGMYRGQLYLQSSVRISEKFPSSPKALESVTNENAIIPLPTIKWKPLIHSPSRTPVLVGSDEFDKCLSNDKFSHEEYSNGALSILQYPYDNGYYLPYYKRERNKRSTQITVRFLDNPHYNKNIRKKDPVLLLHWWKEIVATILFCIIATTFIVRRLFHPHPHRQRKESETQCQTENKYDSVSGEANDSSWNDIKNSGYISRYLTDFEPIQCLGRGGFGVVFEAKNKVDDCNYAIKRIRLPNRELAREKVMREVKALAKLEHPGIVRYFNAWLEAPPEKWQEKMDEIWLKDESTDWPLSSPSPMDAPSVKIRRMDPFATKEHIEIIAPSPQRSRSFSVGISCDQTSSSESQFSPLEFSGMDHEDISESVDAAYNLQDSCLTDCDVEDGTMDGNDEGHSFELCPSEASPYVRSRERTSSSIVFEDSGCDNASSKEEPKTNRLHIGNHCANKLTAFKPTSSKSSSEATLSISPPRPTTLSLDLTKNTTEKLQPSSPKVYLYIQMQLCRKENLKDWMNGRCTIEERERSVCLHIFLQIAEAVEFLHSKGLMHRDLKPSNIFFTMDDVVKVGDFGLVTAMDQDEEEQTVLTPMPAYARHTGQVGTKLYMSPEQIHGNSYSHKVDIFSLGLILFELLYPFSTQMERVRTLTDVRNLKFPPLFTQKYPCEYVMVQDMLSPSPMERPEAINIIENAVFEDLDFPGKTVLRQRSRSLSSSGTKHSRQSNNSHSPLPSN

[2] = biological target: Interferon-induced, double-stranded RNA-activated protein kinase (Homo sapiens, UniProt P19525); assay: Inhibition of PKR (unknown origin) assessed as EIF2AK2 phosphorylation
Chain of Interferon-induced, double-stranded RNA-activated protein kinase (P19525 whole entry): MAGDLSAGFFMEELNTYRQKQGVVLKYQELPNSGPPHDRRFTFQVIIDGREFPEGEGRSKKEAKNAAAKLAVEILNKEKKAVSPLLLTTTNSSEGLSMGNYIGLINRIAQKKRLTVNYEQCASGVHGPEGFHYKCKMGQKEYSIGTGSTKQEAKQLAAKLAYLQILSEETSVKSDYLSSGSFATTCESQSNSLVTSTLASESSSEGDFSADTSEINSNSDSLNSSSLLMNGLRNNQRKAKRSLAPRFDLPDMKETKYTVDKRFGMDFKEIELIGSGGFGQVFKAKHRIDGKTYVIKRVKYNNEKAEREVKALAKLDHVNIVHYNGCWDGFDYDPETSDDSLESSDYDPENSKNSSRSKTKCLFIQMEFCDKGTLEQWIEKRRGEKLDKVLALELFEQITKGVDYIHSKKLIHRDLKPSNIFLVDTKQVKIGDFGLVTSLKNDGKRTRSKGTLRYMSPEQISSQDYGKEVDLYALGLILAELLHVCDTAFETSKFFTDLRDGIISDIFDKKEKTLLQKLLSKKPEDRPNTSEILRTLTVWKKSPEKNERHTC

[3] = biological target: Eukaryotic translation initiation factor 2-alpha kinase 1 (Homo sapiens, UniProt Q9BQI3); assay: Inhibition of HRI (unknown origin) assessed as EIF2AK1 phosphorylation
Chain of Eukaryotic translation initiation factor 2-alpha kinase 1 (Q9BQI3 whole entry): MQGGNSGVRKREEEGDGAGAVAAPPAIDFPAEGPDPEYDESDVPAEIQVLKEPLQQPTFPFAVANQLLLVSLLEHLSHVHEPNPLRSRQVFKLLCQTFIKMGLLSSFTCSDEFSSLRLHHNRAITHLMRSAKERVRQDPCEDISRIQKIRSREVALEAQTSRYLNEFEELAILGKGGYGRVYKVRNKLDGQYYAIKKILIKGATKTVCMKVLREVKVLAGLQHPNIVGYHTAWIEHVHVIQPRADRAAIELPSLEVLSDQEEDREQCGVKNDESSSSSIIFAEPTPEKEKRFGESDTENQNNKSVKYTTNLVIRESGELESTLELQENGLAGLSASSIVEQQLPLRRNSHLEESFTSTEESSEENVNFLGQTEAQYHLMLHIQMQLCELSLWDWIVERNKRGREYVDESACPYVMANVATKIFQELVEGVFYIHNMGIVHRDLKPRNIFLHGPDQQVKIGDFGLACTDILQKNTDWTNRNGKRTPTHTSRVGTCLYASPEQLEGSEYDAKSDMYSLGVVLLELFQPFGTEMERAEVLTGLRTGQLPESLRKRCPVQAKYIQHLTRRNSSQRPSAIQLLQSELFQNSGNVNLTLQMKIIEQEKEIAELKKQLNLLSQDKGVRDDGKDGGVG

Cytochrome P450 3A4 [4] = biological target: T2, Cytochrome P450 3A4 (Homo sapiens, UniProt P08684); assay: Inhibition of CYP3A4 in human liver microsomes using nifedipine as substrate after 5 to 60 mins by LC-MS/MS analysis; assay type: ADME, Microsome
T2 sequence (P08684 whole entry): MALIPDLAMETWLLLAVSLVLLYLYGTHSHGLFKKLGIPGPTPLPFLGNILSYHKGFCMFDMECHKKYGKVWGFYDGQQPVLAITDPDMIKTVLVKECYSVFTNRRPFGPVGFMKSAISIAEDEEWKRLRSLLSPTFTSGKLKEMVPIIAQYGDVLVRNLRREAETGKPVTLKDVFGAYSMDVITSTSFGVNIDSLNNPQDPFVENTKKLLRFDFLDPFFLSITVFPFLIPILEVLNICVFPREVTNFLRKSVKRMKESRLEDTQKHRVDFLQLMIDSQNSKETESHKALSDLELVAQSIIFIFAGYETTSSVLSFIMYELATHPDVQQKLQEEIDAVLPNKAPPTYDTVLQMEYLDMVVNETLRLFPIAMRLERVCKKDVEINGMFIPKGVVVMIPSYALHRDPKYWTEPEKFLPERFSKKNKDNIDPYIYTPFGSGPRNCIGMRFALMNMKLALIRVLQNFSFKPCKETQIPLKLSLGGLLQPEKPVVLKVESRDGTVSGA

Cytochrome P450 2C8 = biological target: T3, Cytochrome P450 2C8 (Homo sapiens, UniProt P10632); assay: Inhibition of CYP2C8 in human liver microsomes using paclitaxel as substrate after 5 to 60 mins by LC-MS/MS analysis; assay type: ADME, Microsome
T3 sequence (P10632 whole entry): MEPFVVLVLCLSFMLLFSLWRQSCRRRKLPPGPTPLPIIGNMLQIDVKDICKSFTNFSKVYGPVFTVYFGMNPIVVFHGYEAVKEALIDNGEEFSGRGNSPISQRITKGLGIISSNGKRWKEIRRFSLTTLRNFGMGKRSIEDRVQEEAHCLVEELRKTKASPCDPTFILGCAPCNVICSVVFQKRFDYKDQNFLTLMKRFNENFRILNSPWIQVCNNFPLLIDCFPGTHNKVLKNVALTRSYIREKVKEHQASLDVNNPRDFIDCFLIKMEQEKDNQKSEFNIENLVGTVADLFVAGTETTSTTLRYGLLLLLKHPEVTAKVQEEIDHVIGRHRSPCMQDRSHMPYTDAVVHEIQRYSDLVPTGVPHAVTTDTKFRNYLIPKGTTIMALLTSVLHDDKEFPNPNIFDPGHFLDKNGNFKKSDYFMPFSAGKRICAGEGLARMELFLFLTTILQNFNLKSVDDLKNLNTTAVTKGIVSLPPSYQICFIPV

Cytochrome P450 3A4 [5] = biological target: T2, Cytochrome P450 3A4; assay: Inhibition of CYP3A4 in human liver microsomes using midazolam as substrate after 5 to 60 mins by LC-MS/MS analysis; assay type: ADME, Microsome
Cytochrome P450 2D6 = Cytochrome P450 2D6 (Homo sapiens, UniProt P10635); assay: Inhibition of CYP2D6 in human liver microsomes using bufuralol as substrate after 5 to 60 mins by LC-MS/MS analysis; assay type: ADME, Microsome
Chain of Cytochrome P450 2D6 (P10635 whole entry): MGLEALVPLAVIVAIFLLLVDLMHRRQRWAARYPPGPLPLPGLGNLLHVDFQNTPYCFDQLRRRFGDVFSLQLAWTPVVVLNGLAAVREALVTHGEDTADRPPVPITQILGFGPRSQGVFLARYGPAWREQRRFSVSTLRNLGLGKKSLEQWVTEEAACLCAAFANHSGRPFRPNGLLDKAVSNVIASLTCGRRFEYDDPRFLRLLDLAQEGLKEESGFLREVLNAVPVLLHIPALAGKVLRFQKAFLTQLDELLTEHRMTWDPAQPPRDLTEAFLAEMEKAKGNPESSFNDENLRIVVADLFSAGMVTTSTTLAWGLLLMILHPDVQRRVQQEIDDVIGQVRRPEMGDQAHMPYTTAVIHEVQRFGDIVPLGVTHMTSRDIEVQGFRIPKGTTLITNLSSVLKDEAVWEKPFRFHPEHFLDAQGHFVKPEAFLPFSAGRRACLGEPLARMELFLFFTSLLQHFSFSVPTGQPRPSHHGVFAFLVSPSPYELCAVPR

Cytochrome P450 2C19 = Cytochrome P450 2C19 (Homo sapiens, UniProt P33261); assay: Inhibition of CYP2C19 in human liver microsomes using mephenytoin as substrate after 5 to 60 mins by LC-MS/MS analysis; assay type: ADME, Microsome
Chain of Cytochrome P450 2C19 (P33261 whole entry): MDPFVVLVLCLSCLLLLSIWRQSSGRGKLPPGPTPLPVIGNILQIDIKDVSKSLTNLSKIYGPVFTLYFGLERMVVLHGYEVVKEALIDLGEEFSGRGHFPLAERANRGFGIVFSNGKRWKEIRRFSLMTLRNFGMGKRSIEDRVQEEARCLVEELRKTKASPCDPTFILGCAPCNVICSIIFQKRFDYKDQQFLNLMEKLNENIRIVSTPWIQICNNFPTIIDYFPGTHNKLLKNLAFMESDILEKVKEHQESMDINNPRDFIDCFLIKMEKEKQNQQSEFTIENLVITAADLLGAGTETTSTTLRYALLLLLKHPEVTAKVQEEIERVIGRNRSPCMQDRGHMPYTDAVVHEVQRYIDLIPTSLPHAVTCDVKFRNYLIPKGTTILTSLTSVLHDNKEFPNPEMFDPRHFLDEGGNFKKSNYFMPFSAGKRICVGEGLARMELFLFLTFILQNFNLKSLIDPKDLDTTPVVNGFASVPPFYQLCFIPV

Cytochrome P450 2C9 = Cytochrome P450 2C9 (Homo sapiens, UniProt P11712); assay: Inhibition of CYP2C9 in human liver microsomes using diclofenac as substrate after 5 to 60 mins by LC-MS/MS analysis; assay type: ADME, Microsome
Chain of Cytochrome P450 2C9 (P11712 whole entry): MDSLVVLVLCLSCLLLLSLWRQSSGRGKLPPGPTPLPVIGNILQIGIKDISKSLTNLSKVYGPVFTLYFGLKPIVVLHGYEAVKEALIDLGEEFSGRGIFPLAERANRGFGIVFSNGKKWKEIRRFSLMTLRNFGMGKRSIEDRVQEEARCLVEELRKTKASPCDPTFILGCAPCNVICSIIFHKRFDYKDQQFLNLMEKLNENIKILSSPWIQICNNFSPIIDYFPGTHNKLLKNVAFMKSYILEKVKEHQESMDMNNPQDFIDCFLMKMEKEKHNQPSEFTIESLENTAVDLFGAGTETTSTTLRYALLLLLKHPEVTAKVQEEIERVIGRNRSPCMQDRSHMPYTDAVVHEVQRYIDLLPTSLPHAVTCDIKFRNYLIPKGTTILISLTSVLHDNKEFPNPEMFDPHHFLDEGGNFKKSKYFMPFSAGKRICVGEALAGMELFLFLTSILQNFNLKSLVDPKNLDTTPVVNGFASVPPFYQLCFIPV

Cytochrome P450 1A2 = biological target: T4, Cytochrome P450 1A2 (Homo sapiens, UniProt P05177); assay: Inhibition of CYP1A2 in human liver microsomes using phenacetin as substrate after 5 to 60 mins by LC-MS/MS analysis; assay type: ADME, Microsome
T4 sequence (P05177 whole entry): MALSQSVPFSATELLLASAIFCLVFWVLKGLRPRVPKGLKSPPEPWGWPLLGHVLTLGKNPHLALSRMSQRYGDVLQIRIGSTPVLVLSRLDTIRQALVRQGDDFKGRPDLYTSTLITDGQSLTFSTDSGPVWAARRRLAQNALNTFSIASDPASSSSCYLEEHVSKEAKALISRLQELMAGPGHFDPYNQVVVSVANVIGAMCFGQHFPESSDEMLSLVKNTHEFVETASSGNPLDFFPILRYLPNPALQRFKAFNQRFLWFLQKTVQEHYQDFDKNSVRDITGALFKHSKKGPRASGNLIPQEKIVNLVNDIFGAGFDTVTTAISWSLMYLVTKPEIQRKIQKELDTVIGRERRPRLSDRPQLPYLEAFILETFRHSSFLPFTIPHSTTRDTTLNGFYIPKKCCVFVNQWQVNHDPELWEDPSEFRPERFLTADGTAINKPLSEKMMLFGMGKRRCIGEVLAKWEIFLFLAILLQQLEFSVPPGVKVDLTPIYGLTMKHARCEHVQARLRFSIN

[6] = Blood clearance in Sprague-Dawley rat at 2.2 mg/kg, iv by LC-MS/MS analysis; assay type: ADME, organism-based; set-up: dose 2.2 mg/kg, route intravenous; settings: whole blood
[7] = biological target: T1, Eukaryotic translation initiation factor 2-alpha kinase 3; assay: Inhibition of thapsigargin-induced autophosphorylation of PERK in human A549 cells preincubated for 1 hr followed by thapsigargin-induction measured after 1 hr by Western blotting analysis; assay type: cell-based
eIF-2-alpha kinase GCN2 = eIF-2-alpha kinase GCN2 (Homo sapiens, UniProt Q9P2K8); assay: Inhibition of GCN2 (unknown origin) assessed as EIF2AK4 phosphorylation
Chain of eIF-2-alpha kinase GCN2 (Q9P2K8 whole entry): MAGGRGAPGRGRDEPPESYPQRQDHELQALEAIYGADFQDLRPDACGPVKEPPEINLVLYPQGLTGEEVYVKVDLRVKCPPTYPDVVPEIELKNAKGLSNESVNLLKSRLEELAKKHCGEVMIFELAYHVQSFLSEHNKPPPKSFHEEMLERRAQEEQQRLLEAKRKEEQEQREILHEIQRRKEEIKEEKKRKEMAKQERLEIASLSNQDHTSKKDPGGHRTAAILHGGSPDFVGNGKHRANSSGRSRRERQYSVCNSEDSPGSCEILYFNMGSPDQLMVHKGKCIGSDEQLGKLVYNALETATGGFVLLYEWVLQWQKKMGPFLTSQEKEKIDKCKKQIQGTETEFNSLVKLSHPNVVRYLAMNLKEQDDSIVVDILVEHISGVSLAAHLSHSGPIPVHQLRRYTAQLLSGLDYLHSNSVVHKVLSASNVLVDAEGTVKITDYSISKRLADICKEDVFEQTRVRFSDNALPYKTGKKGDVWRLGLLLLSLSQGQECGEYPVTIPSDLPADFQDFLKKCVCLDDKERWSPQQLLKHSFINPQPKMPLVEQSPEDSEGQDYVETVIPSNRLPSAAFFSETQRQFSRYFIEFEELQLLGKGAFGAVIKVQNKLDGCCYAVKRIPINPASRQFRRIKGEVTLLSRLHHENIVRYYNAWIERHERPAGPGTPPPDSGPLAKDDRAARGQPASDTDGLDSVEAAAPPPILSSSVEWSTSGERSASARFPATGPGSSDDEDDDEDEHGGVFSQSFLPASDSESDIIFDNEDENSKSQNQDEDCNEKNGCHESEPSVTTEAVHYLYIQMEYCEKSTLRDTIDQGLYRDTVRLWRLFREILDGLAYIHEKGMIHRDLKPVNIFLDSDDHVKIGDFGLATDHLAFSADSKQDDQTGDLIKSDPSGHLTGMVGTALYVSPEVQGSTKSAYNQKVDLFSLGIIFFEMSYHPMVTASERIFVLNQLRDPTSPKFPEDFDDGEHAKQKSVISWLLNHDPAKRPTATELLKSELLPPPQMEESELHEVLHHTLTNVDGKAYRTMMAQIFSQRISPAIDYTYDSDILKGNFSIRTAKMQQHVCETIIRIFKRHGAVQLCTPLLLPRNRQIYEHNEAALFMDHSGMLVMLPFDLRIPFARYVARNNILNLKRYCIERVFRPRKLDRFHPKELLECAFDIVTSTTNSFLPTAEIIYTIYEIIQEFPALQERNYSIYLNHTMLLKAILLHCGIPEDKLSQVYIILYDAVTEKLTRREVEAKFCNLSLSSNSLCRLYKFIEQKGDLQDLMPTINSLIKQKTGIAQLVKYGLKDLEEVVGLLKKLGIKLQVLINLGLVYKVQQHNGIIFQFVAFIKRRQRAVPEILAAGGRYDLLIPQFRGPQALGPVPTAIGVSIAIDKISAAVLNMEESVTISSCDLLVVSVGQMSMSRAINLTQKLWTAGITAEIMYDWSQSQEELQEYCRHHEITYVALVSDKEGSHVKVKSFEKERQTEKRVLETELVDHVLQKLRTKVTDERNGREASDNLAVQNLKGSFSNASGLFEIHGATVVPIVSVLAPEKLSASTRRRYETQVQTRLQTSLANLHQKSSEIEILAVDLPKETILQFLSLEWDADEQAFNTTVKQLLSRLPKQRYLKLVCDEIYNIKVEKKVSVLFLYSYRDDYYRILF

IC50 [1] [nM] | IC50 [2] [nM] | IC50 [3] [nM] | IC50 (Cytochrome P450 3A4 [4]) [nM] | IC50 (Cytochrome P450 2C8) [nM] | IC50 (Cytochrome P450 3A4 [5]) [nM] | IC50 (Cytochrome P450 2D6) [nM] | IC50 (Cytochrome P450 2C19) [nM] | IC50 (Cytochrome P450 2C9) [nM] | IC50 (Cytochrome P450 1A2) [nM] | clearance [6] [mL/min/kg] | IC50 [7] [nM] | IC50 (eIF-2-alpha kinase GCN2) [nM] | SMILES
2.7 | 99 | 61 | 20500 | > 25000 | > 25000 | > 25000 | > 25000 | > 25000 | > 25000 | 1.9 | 30 |  | Cc1cc(C)n(CC(=O)N2CCc3c2ccc(-c2cn(C)c4ncnc(N)c24)c3F)n1
16.6 |  |  |  |  |  |  |  |  |  |  |  |  | Cc1ccnn1CC(=O)N1CCc2cc(-c3cn(C)c4ncnc(N)c34)ccc21

Second part, the molecule before the results:

SMILES | IC50 [1] [nM] | IC50 [2] [nM] | IC50 [3] [nM] | IC50 (Cytochrome P450 3A4 [4]) [nM] | IC50 (Cytochrome P450 2C8) [nM] | IC50 (Cytochrome P450 3A4 [5]) [nM] | IC50 (Cytochrome P450 2D6) [nM] | IC50 (Cytochrome P450 2C19) [nM] | IC50 (Cytochrome P450 2C9) [nM] | IC50 (Cytochrome P450 1A2) [nM] | clearance [6] [mL/min/kg] | IC50 [7] [nM] | IC50 (eIF-2-alpha kinase GCN2) [nM]
Cn1cc(-c2ccc3c(c2)CCN3C(=O)Cc2cccnc2)c2c(N)ncnc21 | 23.4 |  |  |  |  |  |  |  |  |  |  |  | 
Cc1cccc(CC(=O)N2CCc3cc(-c4cn(C)c5ncnc(N)c45)ccc32)n1 | 2.5 |  |  |  |  |  |  |  |  |  | 10.5 | 100 | 
Cn1cc(-c2ccc3c(c2)CCN3C(=O)Cc2ccccn2)c2c(N)ncnc21 | 19.1 |  |  |  |  |  |  |  |  |  |  |  | 
Cn1cc(-c2ccc3c(c2F)CCN3C(=O)Cc2cccc(C(F)(F)F)n2)c2c(N)ncnc21 | 0.5 | 359 | 37 | 7400 | 5830 | 9090 | 23700 | > 25000 | 19200 | > 25000 | 8.9 | < 30 | 776
